Assay results reported in patent US8921362B2, “6,7-dialkoxy quinazoline derivatives and methods of treating drug resistant and other tumors” (Natco Pharma Limited, priority 2008, dated 2014).

Columns and labels:
ACVRL1 = target: T1, ACVRL1 (Homo sapiens, UniProt P37023); experiment: KinomeScan; assay type: binding; details: read-out: % Ctrl @ 10000 nM
T1 construct: host or cells: E. coli (BL21-derived), T7 phage lysate
Outline: (§1)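 Each kinase was expressed as a T7 phage fusion, with lysates produced in log-phase BL21-derived E. coli. Captured phage after compound competition was measured by qPCR.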

CAMK2A = target: T2, CAMK2A (Homo sapiens, UniProt Q9UQM7); experiment: KinomeScan; assay type: binding; details: read-out: % Ctrl @ 10000 nM
T2 construct: host or cells: E. coli host derived from BL21
Outline: as §1

CDC2L1 = target: T3, CDC2L1 (Homo sapiens, UniProt P21127); experiment: KinomeScan; assay type: binding; details: read-out: % Ctrl @ 10000 nM
T3 construct: host or cells: T7 phage in E. coli host derived from BL21
Outline: as §1

CDK5 = target: T4, CDK5 (Homo sapiens, UniProt Q00535); experiment: KinomeScan; assay type: binding; details: read-out: % Ctrl @ 10000 nM
T4 construct: host or cells: T7 phage in E. coli host derived from BL21
Outline: as §1

CDKL2 = target: T5, CDKL2 (Homo sapiens, UniProt Q92772); experiment: KinomeScan; assay type: binding; details: read-out: % Ctrl @ 10000 nM
T5 construct: host or cells: T7 phage in E. coli host derived from BL21
Outline: as §1

DAPK3 = target: T6, DAPK3 (Homo sapiens, UniProt O43293); experiment: KinomeScan; assay type: binding; details: read-out: % Ctrl @ 10000 nM
T6 construct: purchased Ambit Biosciences Corp (KinomeScan); host or cells: T7 phage in E. coli host derived from BL21
Outline: as §1

DMPK = target: T7, DMPK (Homo sapiens, UniProt Q09013); experiment: KinomeScan; assay type: binding; details: read-out: % Ctrl @ 10000 nM
T7 construct: purchased Ambit Biosciences Corp (KinomeScan); host or cells: T7 phage in E. coli host derived from BL21
Outline: as §1

EGFR(G719C) = target: T8, EGFR(G719C) (Homo sapiens, UniProt P00533, G719C); experiment: KinomeScan; assay type: binding; details: read-out: % Ctrl @ 10000 nM
T8 construct: purchased Ambit Biosciences Corp (KinomeScan); host or cells: T7 phage in E. coli host derived from BL21
Outline: as §1

ERK4 = target: T9, ERK4 (Homo sapiens, UniProt P31152); experiment: KinomeScan; assay type: binding; details: read-out: % Ctrl @ 10000 nM
T9 construct: purchased Ambit Biosciences Corp; host or cells: T7 phage in E. coli host derived from BL21
Outline: as §1

FLT3(D835Y) = target: T10, FLT3(D835Y) (Homo sapiens, UniProt P36888, D835Y); experiment: KinomeScan; assay type: binding; details: read-out: % Ctrl @ 10000 nM
T10 construct: host or cells: T7 phage in E. coli host derived from BL21
Outline: as §1

IKK-beta = target: T11, IKK-beta (Homo sapiens, UniProt O14920); experiment: KinomeScan; assay type: binding; details: read-out: % Ctrl @ 10000 nM
T11 construct: host or cells: T7 phage grown in E. coli host derived from BL21
Outline: as §1

ITK = target: T12, ITK (Homo sapiens, UniProt Q08881); experiment: KinomeScan; assay type: binding; details: read-out: % Ctrl @ 10000 nM
T12 construct: host or cells: T7 phage grown in E. coli host derived from BL21
Outline: as §1

KIT(V559D, V654A) = target: T13, KIT(V559D, V654A) (Homo sapiens, UniProt P10721, V559D/V654A); experiment: KinomeScan; assay type: binding; details: read-out: % Ctrl @ 10000 nM
T13 construct: host or cells: T7 phage grown in E. coli host derived from BL21
Outline: as §1

MINK = target: T14, MINK (Homo sapiens, UniProt Q8N4C8); experiment: KinomeScan; assay type: binding; details: read-out: % Ctrl @ 10000 nM
T14 construct: host or cells: E. coli host derived from the BL21 strain, infected with T7 phage
Outline: as §1

NEK5 = target: T15, NEK5 (Homo sapiens, UniProt Q6P3R8); experiment: KinomeScan; assay type: binding; details: read-out: % Ctrl @ 10000 nM
T15 construct: host or cells: T7 phage grown in E. coli host derived from BL21
Outline: as §1

PFTK1 = target: T16, PFTK1 (Homo sapiens, UniProt O94921); experiment: KinomeScan; assay type: binding; details: read-out: % Ctrl @ 10000 nM
T16 construct: host or cells: E. coli host derived from BL21, infected with T7 phage
Outline: as §1

PIK3CA(E545K) = target: T17, PIK3CA(E545K) (Homo sapiens, UniProt P42336, E545K); experiment: KinomeScan; assay type: binding; details: read-out: % Ctrl @ 10000 nM
T17 construct: host or cells: E. coli host derived from BL21, infected with T7 phage
Outline: as §1

PIK3CD = target: T18, PIK3CD (Homo sapiens, UniProt O00329); experiment: KinomeScan; assay type: binding; details: read-out: % Ctrl @ 10000 nM
T18 construct: host or cells: T7 phage in E. coli host derived from BL21
Outline: as §1

PLK4 = target: T19, PLK4 (Homo sapiens, UniProt O00444); experiment: KinomeScan; assay type: binding; details: read-out: % Ctrl @ 10000 nM
T19 construct: host or cells: T7 phage in E. coli host derived from BL21
Outline: as §1

[1] = target: T20, RPS6KA3(Kin.Dom.-1-N-terminal) (Homo sapiens, UniProt P51812); experiment: KinomeScan; assay type: binding; details: read-out: % Ctrl @ 10000 nM
T20 construct: RPS6KA3(Kin.Dom.-1-N-terminal); host or cells: E. coli host derived from BL21, T7 phage display
Outline: as §1

[2] = target: T21, RPS6KA4(Kin.Dom.-2-C-terminal) (Homo sapiens, UniProt O75676); experiment: KinomeScan; assay type: binding; details: read-out: % Ctrl @ 10000 nM
T21 construct: RPS6KA4(KIN.DOM.2); host or cells: E. coli host derived from BL21, T7 phage display
Outline: as §1

SIK = target: T22, SIK (Homo sapiens, UniProt P57059); experiment: KinomeScan; assay type: binding; details: read-out: % Ctrl @ 10000 nM
T22 construct: host or cells: T7 phage grown in E. coli (BL21-derived)
Outline: as §1

TESK1 = target: T23, TESK1 (Homo sapiens, UniProt Q15569); experiment: KinomeScan; assay type: binding; details: read-out: % Ctrl @ 10000 nM
T23 construct: host or cells: T7 phage grown in E. coli (BL21-derived)
Outline: as §1

YES = target: T24, YES (Homo sapiens, UniProt P07947); experiment: KinomeScan; assay type: binding; details: read-out: % Ctrl @ 10000 nM
T24 construct: host or cells: E. coli host derived from BL21, T7 phage
Outline: as §1

[3] = Acute toxicity (LD0, LD50); assay type: in vivo; details: both, mouse, in vivo, po, 7 days
Method: […]. The doses 500, 750, 1000 and 2000 mg/Kg were administered orally. Each group included 5 mice. […] The survived animals were autopsied for asserting the absorption of compound through g.i.t. The LD50 was determined according to the method described in Litchfield and Wilcoxon (J. Pharmacol. Exp. Ther. 1949, 96:99-113).

ERBB2 = ERBB2 (Homo sapiens, UniProt P04626); experiment: KinomeScan; assay type: binding; set-up: purchased Ambit Biosciences Corp; host or cells: T7 phage in E. coli host derived from BL21; details: read-out: % Ctrl @ 10000 nM
Method: (§2) Kinase assays: Assays were performed as described in Fabian et al. (2005) Nature Biotechnology, vol. 23, p. 329. Kinase-tagged T7 phage strains were grown in parallel in 24 or 96-well blocks in an E. coli host derived from the BL21 strain. E. coli were grown to log-phase and infected with T7 phage from a frozen stock (multiplicity of infection ˜0.1) and incubated with shaking at 32° C. until lysis (−90 minutes). The lysates were centrifuged and filtered to remove cell debris. […] The liganded beads were blocked with excess biotin and washed with blocking buffer (SeaBlock (Pierce), 1% BSA, 0.05% Tween 20, 1 mM DTT) to remove unbound ligand and to reduce non-specific phage binding.
(§3) Test compounds were prepared as 40× stocks in DMSO and diluted into the aqueous environment. 2.5% DMSO was added to control assays lacking a test compound. All reactions were performed in polystyrene 96-well plates that had been pretreated with blocking buffer in a final volume of 0.04 ml. […] The phage titer in the eluates was measured by quantitative PCR.

ERBB4 = ERBB4 (Homo sapiens, UniProt Q15303); experiment: KinomeScan; assay type: binding; set-up: purchased Ambit Biosciences Corp; host or cells: T7 phage in E. coli host derived from BL21; details: read-out: % Ctrl @ 10000 nM
Method: as §2, §3

T11 sequence (O14920 whole entry): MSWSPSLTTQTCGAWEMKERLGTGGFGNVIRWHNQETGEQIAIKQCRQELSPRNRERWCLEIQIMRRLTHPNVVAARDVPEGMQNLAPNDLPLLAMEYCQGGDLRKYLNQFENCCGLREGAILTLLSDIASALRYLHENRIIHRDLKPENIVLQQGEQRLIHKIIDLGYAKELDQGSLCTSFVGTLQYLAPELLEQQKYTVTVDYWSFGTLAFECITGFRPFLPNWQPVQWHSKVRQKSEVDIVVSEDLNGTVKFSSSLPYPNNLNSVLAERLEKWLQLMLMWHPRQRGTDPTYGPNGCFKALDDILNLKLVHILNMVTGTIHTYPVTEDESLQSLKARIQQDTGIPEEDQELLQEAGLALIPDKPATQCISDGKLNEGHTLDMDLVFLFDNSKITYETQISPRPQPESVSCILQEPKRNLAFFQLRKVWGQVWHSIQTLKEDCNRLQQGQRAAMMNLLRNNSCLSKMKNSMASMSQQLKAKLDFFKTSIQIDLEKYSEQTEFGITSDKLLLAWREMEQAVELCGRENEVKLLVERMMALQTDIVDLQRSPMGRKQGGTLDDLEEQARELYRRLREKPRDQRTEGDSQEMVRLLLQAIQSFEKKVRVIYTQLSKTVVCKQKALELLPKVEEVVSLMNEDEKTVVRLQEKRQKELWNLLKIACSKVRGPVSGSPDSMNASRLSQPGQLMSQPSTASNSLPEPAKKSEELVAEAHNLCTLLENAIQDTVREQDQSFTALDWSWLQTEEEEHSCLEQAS
T2 sequence (Q9UQM7 whole entry): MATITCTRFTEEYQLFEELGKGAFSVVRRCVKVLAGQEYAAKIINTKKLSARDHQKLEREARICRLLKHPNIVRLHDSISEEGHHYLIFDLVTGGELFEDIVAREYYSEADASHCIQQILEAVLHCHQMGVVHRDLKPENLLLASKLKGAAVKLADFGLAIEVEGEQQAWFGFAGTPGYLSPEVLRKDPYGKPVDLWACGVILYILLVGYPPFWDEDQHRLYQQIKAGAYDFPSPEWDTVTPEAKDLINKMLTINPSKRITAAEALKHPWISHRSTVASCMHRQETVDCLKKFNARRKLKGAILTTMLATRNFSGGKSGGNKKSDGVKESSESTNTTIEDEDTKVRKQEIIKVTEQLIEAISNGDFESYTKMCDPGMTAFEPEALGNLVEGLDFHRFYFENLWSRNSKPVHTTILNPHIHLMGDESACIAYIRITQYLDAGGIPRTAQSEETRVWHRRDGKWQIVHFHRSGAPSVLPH
T19 sequence (O00444 whole entry): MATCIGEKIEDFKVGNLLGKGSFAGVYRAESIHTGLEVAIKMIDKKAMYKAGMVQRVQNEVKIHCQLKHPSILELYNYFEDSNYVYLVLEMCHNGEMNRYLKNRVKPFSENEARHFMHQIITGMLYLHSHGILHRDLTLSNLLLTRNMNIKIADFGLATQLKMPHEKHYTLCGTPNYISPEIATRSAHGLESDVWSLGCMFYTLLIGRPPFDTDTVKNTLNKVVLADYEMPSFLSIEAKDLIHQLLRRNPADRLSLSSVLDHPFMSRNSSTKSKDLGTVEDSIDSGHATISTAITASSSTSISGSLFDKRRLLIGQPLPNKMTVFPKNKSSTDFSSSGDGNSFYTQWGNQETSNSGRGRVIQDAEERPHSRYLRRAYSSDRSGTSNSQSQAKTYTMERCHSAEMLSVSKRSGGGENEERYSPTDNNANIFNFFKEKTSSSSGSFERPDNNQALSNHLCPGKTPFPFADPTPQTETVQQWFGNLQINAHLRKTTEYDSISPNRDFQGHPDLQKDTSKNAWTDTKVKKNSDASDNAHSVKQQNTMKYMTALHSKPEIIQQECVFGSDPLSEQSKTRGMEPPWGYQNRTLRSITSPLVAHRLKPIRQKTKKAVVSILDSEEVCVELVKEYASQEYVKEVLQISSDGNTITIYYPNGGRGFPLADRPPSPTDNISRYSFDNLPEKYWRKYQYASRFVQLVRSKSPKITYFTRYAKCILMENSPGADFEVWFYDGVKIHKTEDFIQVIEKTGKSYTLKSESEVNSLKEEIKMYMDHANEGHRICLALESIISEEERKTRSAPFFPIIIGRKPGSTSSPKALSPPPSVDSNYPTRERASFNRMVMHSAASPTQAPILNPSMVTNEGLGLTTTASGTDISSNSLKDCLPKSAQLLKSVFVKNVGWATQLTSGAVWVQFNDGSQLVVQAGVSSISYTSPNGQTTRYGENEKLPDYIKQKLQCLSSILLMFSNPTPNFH
T5 sequence (Q92772 whole entry): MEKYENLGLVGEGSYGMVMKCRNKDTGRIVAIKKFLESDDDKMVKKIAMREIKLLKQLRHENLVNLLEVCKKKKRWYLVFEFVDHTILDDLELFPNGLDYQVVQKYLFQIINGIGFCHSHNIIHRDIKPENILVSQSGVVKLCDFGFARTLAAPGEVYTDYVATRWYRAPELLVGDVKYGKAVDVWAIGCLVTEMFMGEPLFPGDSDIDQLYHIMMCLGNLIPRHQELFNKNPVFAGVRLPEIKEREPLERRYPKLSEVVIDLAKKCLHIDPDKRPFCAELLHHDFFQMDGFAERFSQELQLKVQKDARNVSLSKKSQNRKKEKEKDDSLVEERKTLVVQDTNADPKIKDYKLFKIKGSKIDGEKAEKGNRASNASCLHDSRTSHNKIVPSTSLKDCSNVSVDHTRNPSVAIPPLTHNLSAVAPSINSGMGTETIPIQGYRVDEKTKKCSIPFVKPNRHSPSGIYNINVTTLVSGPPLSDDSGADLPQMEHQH
T1 sequence (P37023 22-503): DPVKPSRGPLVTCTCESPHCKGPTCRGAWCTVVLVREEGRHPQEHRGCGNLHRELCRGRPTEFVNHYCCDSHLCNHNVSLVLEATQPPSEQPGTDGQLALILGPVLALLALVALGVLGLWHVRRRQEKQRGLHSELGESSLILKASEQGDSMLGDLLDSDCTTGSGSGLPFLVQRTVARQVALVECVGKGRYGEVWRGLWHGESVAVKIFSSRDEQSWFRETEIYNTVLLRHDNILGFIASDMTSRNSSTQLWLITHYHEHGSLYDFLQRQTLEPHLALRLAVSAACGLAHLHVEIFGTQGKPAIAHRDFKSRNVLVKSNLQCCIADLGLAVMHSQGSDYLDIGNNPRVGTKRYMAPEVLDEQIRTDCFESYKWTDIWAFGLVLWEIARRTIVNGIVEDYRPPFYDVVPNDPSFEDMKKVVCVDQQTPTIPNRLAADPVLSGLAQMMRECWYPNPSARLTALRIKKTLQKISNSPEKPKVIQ
T7 sequence (Q09013 whole entry): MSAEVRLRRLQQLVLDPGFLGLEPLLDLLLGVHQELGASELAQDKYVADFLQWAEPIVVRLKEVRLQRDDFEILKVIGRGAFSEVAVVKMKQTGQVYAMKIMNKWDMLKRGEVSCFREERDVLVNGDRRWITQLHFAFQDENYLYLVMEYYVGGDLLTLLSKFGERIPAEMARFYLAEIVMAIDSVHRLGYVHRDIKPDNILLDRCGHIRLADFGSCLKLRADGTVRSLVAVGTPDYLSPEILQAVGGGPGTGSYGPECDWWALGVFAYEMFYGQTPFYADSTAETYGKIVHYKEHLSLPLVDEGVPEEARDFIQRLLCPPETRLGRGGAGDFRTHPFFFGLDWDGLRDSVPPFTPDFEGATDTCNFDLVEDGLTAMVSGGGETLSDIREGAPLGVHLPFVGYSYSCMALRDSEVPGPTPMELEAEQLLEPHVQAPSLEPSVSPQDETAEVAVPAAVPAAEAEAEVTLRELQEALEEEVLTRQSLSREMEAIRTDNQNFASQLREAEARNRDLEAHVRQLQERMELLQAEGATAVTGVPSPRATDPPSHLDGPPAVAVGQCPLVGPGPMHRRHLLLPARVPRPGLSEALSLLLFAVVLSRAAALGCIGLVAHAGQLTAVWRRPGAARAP
T24 sequence (P07947 whole entry): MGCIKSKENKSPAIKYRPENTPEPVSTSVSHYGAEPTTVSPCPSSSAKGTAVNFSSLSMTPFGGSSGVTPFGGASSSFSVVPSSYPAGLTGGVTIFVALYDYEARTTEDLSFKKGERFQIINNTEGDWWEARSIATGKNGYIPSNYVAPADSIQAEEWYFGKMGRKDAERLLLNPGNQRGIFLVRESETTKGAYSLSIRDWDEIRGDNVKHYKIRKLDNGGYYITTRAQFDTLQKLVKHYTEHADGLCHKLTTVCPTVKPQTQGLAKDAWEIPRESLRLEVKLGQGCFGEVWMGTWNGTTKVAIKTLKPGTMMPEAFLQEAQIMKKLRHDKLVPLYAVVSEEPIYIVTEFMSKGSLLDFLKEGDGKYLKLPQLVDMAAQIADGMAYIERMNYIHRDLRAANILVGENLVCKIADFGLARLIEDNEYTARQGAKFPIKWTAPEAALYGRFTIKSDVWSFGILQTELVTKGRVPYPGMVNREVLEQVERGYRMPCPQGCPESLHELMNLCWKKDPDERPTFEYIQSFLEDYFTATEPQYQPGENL
T6 sequence (O43293 whole entry): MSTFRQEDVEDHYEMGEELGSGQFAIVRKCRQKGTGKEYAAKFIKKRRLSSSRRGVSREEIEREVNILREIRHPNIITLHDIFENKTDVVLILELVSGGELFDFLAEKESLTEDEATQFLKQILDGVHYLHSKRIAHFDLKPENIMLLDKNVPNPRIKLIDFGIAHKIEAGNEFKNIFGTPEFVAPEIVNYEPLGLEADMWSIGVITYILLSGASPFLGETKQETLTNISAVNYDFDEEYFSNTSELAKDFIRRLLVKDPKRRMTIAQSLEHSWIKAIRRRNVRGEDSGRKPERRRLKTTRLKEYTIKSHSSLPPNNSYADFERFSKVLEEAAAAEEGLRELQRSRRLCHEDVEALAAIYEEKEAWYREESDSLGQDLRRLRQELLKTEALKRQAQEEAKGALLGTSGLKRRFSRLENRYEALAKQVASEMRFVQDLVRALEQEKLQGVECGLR

`C#Cc1cccc(Nc2ncnc3cc(OC)c(OCCCN4CCOCC4)cc23)c1` [NRC-2694, N-(3-ethynylphenyl)-7-methoxy-6-[3-(4-morpholinyl)propoxy]-4-quinazolinamine] gave a remaining binding at 10 µM (ACVRL1) of 91%, a remaining binding at 10 µM (CAMK2A) of 63% and a remaining binding at 10 µM (CDC2L1) of 42%. For the same compound, the remaining binding at 10 µM (CDK5) was 100%, the remaining binding at 10 µM (CDKL2) was 67% and the remaining binding at 10 µM (DAPK3) was 34%. It also gave a remaining binding at 10 µM (DMPK) of 6.8%, a remaining binding at 10 µM (EGFR(G719C)) of 0% and a remaining binding at 10 µM (ERK4) of 3.7%. The remaining binding at 10 µM (FLT3(D835Y)) was 9.4%, the remaining binding at 10 µM (IKK-beta) was 51% and the remaining binding at 10 µM (ITK) was 82%. The remaining binding at 10 µM (KIT(V559D, V654A)) was 47%, the remaining binding at 10 µM (MINK) was 16% and the remaining binding at 10 µM (NEK5) was 94%. The remaining binding at 10 µM (PFTK1) was 71%, the remaining binding at 10 µM (PIK3CA(E545K)) was 100% and the remaining binding at 10 µM (PIK3CD) was 89%. It also gave a remaining binding at 10 µM (PLK4) of 70%, a remaining binding at 10 µM [1] of 94% and a remaining binding at 10 µM [2] of 8.9%. The remaining binding at 10 µM (SIK) was 53%, the remaining binding at 10 µM (TESK1) was 83% and the remaining binding at 10 µM (YES) was 41%. The LD0 [3] was 2000 mg/kg, the remaining binding at 10 µM (ERBB2) was 31% and the remaining binding at 10 µM (ERBB4) was 3.3%.
